Experimental findings from ChEMBL document CHEMBL1131668, “Purin-8-ones as corticotropin-releasing hormone (CRH-R1) receptor antagonists” (Bioorg Med Chem Lett, 1999) are described below.

The assay concerns the target T1, Corticotropin-releasing factor receptor 1 (Homo sapiens, UniProt P34998).
T1 sequence (P34998 whole entry): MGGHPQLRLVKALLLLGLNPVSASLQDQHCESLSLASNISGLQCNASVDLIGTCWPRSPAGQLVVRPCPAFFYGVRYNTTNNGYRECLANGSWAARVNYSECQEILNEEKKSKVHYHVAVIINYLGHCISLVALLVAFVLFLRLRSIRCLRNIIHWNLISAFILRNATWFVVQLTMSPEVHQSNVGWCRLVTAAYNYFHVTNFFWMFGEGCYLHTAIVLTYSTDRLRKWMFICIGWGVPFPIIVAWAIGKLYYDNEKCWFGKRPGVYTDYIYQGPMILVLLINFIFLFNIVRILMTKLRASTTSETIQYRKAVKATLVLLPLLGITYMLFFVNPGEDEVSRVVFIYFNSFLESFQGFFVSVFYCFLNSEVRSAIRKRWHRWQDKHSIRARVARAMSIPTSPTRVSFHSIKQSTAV
Put plainly: Binding affinity for transfected human Corticotropin releasing factor receptor expressed in HEK 293E cells using [125I]TYR-oCRH as the displaced radioligand. The class given is cell-based, HEK293.
What is called Ki is a measure of affinity in units of concentration, obtained from inhibition or displacement. Higher therefore signals a looser hold on the target. Turning to `CCCCN(CC)c1nc(C)nc2c1n(CC1CC1)c(=O)n2-c1ccc(C(C)C)cc1Br`, affinity was put at a Ki of 117 nM.

The molecule `COCCN(CC1CC1)c1nc(C)nc2c1n(C)c(=O)n2-c1ccc(C(C)C)cc1Br` gave a Ki of 12.2 nM.

Molecule `CCCCN(CC)c1nc(C)nc2c1nc(OCC1CC1)n2-c1ccc(C(C)C)cc1Br` registered a Ki of 31.1 nM.

For `CCCCN(CC)c1nc(C)nc2c1nc(Cl)n2-c1ccc(C(C)C)cc1Br`, the affinity, expressed as Ki, was 1.5 nM.

The molecule `CCCCC(CC)Nc1nc(C)nc2c1n(C)c(=O)n2-c1c(C)cc(C)cc1C` (configuration not stated) displayed a Ki of 17.4 nM.

Consider `CCCN(CC1CC1)c1nc(C)nc2c1n(C)c(=O)n2-c1ccc(C(C)C)cc1Br`, for which the Ki was 5.7 nM.

For the molecule `CCCCN(CC)c1cc(C)nc2c1n(C)c(=O)n2-c1ccc(C(C)C)cc1Br`, the inhibition constant Ki stood at 3 nM.

Regarding `CCCCN(CC)c1nc(C)nc2c1nc(O)n2-c1ccc(C(C)C)cc1Br`, the affinity corresponds to a Ki of 890 nM.

Molecule `CCCN(CCC)c1nc(C)nc2c1n(C)c(=O)n2-c1c(C)cc(C)nc1C` returned a Ki of 259 nM.

`CCCCN(CC)c1nc(C)nc2c1nc(OC)n2-c1ccc(C(C)C)cc1Br` came in with a Ki of 1.5 nM.

Molecule `CCCN(CCC)c1nc(C)nc2c1n(C)c(=O)n2-c1ccc(C(C)C)cc1Br` displayed a Ki of 7.6 nM.

With `COCCN(Cc1ccccc1)c1nc(C)nc2c1n(C)c(=O)n2-c1ccc(C(C)C)cc1Br`, the Ki came to 26.2 nM.

The molecule `CCCCN(CC)c1nc(C)nc2c1n(C)c(=O)n2-c1c(C)cc(C)nc1C` displayed a Ki of 124 nM.

`CCN(CCOC)c1nc(C)nc2c1n(C)c(=O)n2-c1ccc(C(C)C)cc1Br` returned a Ki of 47.9 nM.

Take `CCCCN(CC)c1nc(C)cc2c1n(C)c(=O)n2-c1ccc(C(C)C)cc1Br`: the Ki came to 463 nM.

`CCCN(CC1CC1)c1nc(C)nc2c1n(C)c(=O)n2-c1c(C)cc(C)cc1C` registered a Ki of 6.1 nM.

`CCCN(CC1CC1)c1nc(C)nc2c1n(C)c(=O)n2-c1c(C)cc(C)nc1C` had a Ki of 113 nM.

On to `CCC(COC)Nc1nc(C)nc2c1n(C)c(=O)n2-c1ccc(C(C)C)cc1Br` (configuration not stated), for which the Ki was 42.8 nM.

With `CCCCC(CC)Nc1nc(C)nc2c1n(C)c(=O)n2-c1ccc(C(C)C)cc1Br` (configuration not stated), the affinity corresponds to a Ki of 15.1 nM.

As for `COCCN(CCOC)c1nc(C)nc2c1n(C)c(=O)n2-c1c(C)cc(C)cc1C`, the Ki turned out to be 698 nM.

For the molecule `CCCCN(CC)c1nc(C)nc2c1nc(N1CCOCC1)n2-c1ccc(C(C)C)cc1Br`, the affinity, expressed as Ki, was 345 nM.

Molecule `COCCN(CCOC)c1nc(C)nc2c1n(C)c(=O)n2-c1ccc(C(C)C)cc1Br` displayed a Ki of 130 nM.
